Experimental data published in patent US20250289827A1, “MORPHIC FORMS OF A MUTANT BRAF DEGRADER AND METHODS OF MANUFACTURE THEREOF” (C4 THERAPEUTICS, INC., priority 2022, published 2025).

Assays:
Type in all cases: physicochemical
[1] = Characterization of salt forms (XRPD, DSC, TGA, KF, HPLC, NMR/IC); conditions: for Melting onset (DCS, ° C.): Tonset
Procedure: Salt Forms identified in the investigation (Table 16) were further characterized by XRPD, DCS, TGA, KF, HPLC and ^1H NMR/IC (Table 19).
About 419 mg of sodium salt Form F was obtained as off-white solid in 76% yield.

[2] = Photostability evaluation of sodium salt Form F
[3] = Solubility in aqueous pH buffers and bio-relevant fluids at 37° C.; conditions: for XRPD 24 h: residual solid
Procedure: Solubility of the Form B and sodium salt Form F was measured in 7 aqueous pH buffers and bio-relevant fluids including pH 1.2 HCl solution (0.2N), pH 4.5 acetate buffer (50 mM), pH 6.8 phosphate buffer (50 mM), pH 2.0 SGF, pH 6.5 FaSSIF-v1, pH 5.0 FeSSIF-v1 and water at 37° C. for 2 h and 24 h, respectively.
Accurate 20 mg of the Form B was weighed into a 20 mL glass vial. Then, 10 mL of solubility medium was added. The sodium salt Form F amount used was equivalent to 20 mg anhydrous form. Obtained suspensions were stirred at 37° C. at 400 rpm and sampled at 2 hours and at 24 hours, respectively. The samples were centrifuged at 37° C. at 4,000 rpm for 4 min. Supernatants were analyzed by HPLC and pH meter for solubility and pH value, respectively. Residual solids (wet cakes) from the 24 hours samples were also characterized by XRPD to determine physical form.

[4] = Hygroscopicity of sodium salt Form F by DVS at 25° C.; conditions: for Form and crystallinity change after DVS test: DVS 25° C.
Procedure: Hygroscopicity of sodium salt Form F was evaluated by dynamic vapor sorption (DVS) test at 25° C.

[5] = Bulk stability of sodium salt Form F (1 week stress); conditions: for Bulk (XRPD) / Color / Purity, Bulk (HPLC): Solid state; for Decrease in chemical purity: one week stress at 25° C./92% RH
Procedure: Sodium salt Form F was placed at 25° C./92% RH in an open container, at 40° C./75% RH in an open container and at 60RC in a closed container for 1 week. Samples after the stress were characterized by XRPD and HPLC and inspected for color change.

[6] = Solid state, photo (visible light, 1.2 million lux-hrs)
[7] = FaSSIF-v1, pH 6.5, 37° C., LOQ: 1.5 μg/mL
[8] = pH 1.2 HCl solution (0.2N), 37° C.
[9] = pH 4.5 acetate buffer (50 mM), 37° C.
[10] = pH 4.5 acetate buffer (50 mM), 37° C., LOQ: 1.5 μg/mL
[11] = pH 6.8 phosphate buffer (50 mM), 37° C.
[12] = pH 6.8 phosphate buffer (50 mM), 37° C., LOQ: 1.5 μg/mL
[13] = 25° C./92% RH, open container, 1 week
[14] = 40° C./75% RH, open container, 1 week
[15] = 60° C., tight container, 1 week

CCN(C)S(=O)(=O)[N-]c1ccc(F)c(Oc2ccc3ncn([C@H]4COC5(CCN(C(=O)CC6(O)CCN(c7cc8c(cc7F)c(N7CCC(=O)NC7=O)nn8C)CC6)CC5)C4)c(=O)c3c2)c1C#N.[Na+] [Compound 1 sodium salt Form D]
Melting onset (DCS, ° C.) ([1]; listed as Sodium salt Form D): Tonset 229.5 °C | Weight loss (TGA) ([1]; at 150° C.): 6.9% at | Enthalpy (DSC, J/g) ([1]; listed as Sodium salt Form D): 27.83 J/g

CCN(C)S(=O)(=O)[N-]c1ccc(F)c(Oc2ccc3ncn([C@H]4COC5(CCN(C(=O)CC6(O)CCN(c7cc8c(cc7F)c(N7CCC(=O)NC7=O)nn8C)CC6)CC5)C4)c(=O)c3c2)c1C#N.[Na+] [Compound 1 sodium salt Form E]
Melting onset (DCS, ° C.) ([1]; listed as Sodium salt Form E): Tonset 228.7 °C | Weight loss (TGA) ([1]; at 180° C.): 10.8% at | Enthalpy (DSC, J/g) ([1]; listed as Sodium salt Form E): 26.01 J/g | Water content (by KF) ([1]; listed as Sodium salt Form E): 10.2% by % by weight

CCN(C)S(=O)(=O)[N-]c1ccc(F)c(Oc2ccc3ncn([C@H]4COC5(CCN(C(=O)CC6(O)CCN(c7cc8c(cc7F)c(N7CCC(=O)NC7=O)nn8C)CC6)CC5)C4)c(=O)c3c2)c1C#N.[Na+] [Compound 1 sodium salt Form F]
Chemical purity decrease after photostability evaluation [2]: about 1% | Bulk (XRPD) [2, 6]: No form change | Color [2, 6]: No change of color | Purity, Bulk (HPLC) [2, 6]: 97.9% | Purity, Control (HPLC) ([2]; photo test, control sample): 98.9% | Disproportionation after solubility test (IC) [3]: partially disproportionated | pH of supernatant 24 h ([3]; FaSSIF-v1, pH 6.5, 37° C.): (pH = 6.7) | Solubility 2 h [3, 7]: <LOQ | Solubility 24 h [3, 7]: <LOQ | Solubility 2 h ([3]; FeSSIF-v1, pH 5.0, 37° C.): 6.7 µg/mL | Solubility 24 h ([3]; FeSSIF-v1, pH 5.0, 37° C.): 10.4 µg/mL | pH of supernatant 24 h ([3]; FeSSIF-v1, pH 5.0, 37° C.): (pH = 5.1) | Solubility 2 h ([3]; SGF, pH 2.0, 37° C.): 10.9 µg/mL | Solubility 24 h ([3]; SGF, pH 2.0, 37° C.): 8.6 µg/mL | pH of supernatant 24 h ([3]; SGF, pH 2.0, 37° C.): (pH = 2.2) | Solubility 24 h ([3]; Water, 37° C.): 73.0 µg/mL | pH of supernatant 24 h ([3]; Water, 37° C.): (pH = 8.7) | Solubility 2 h ([3]; Water, 37° C., LOQ: 1.5 μg/mL): 98.8 µg/mL | pH dependence of solubility ([3]; aqueous media, 37° C.): pH dependent solubility | Solubility compared with Form B ([3]; especially pH 1.2 HCl solution, pH 4.5 acetate buffer, SGF, FeSSIF-v1, 37° C.): better solubility than that of the Form B | Solubility 2 h [3, 8]: 19.3 µg/mL | Solubility 24 h [3, 8]: 51.1 µg/mL | pH of supernatant 24 h [3, 8]: (pH = 1.0) | Crystallinity change after solubility test ([3]; pH 1.2 HCl solution and SGF): crystallinity decrease | pH of supernatant 24 h [3, 9]: (pH = 4.6) | Solubility 2 h [3, 10]: <LOQ | Solubility 24 h [3, 10]: 3.7 µg/mL | pH of supernatant 24 h [3, 11]: (pH = 6.9) | Solubility 2 h [3, 12]: <LOQ | Solubility 24 h [3, 12]: <LOQ | XRPD 24 h ([3]; FaSSIF-v1, pH 6.5, 37° C.): No form change | XRPD 24 h ([3]; FeSSIF-v1, pH 5.0, 37° C.): No form change | XRPD 24 h ([3]; Water, 37° C.): No form change | XRPD 24 h [3, 9]: No form change | XRPD 24 h [3, 11]: No form change | 1st desorp. Weight % change ([4]; 0% RH, 25° C.): 0.0% | 2nd sorp. Weight % change ([4]; 0% RH, 25° C.): 0.0% | 1st desorp. Weight % change ([4]; 10% RH, 25° C.): 0.6% | 2nd sorp. Weight % change ([4]; 10% RH, 25° C.): 0.5% | 1st desorp. Weight % change ([4]; 20% RH, 25° C.): 1.2% | 2nd sorp. Weight % change ([4]; 20% RH, 25° C.): 0.8% | 1st desorp. Weight % change ([4]; 30% RH, 25° C.): 2.2% | 2nd sorp. Weight % change ([4]; 30% RH, 25° C.): 1.2% | 1st desorp. Weight % change ([4]; 40% RH, 25° C.): 3.7% | 1st sorp. Weight % change ([4]; 40% RH, 25° C.): 3.1% | 2nd desorp. Weight % change ([4]; 40% RH, 25° C.): 3.9% | 2nd sorp. Weight % change ([4]; 40% RH, 25° C.): 1.5% | 1st desorp. Weight % change ([4]; 50% RH, 25° C.): 5.0% | 1st sorp. Weight % change ([4]; 50% RH, 25° C.): 3.3% | 2nd desorp. Weight % change ([4]; 50% RH, 25° C.): 5.2% | 2nd sorp. Weight % change ([4]; 50% RH, 25° C.): 2.2% | 1st desorp. Weight % change ([4]; 60% RH, 25° C.): 6.1% | 1st sorp. Weight % change ([4]; 60% RH, 25° C.): 3.4% | 2nd desorp. Weight % change ([4]; 60% RH, 25° C.): 6.2% | 2nd sorp. Weight % change ([4]; 60% RH, 25° C.): 3.5% | 1st desorp. Weight % change ([4]; 70% RH, 25° C.): 7.5% | 1st sorp. Weight % change ([4]; 70% RH, 25° C.): 3.7% | 2nd desorp. Weight % change ([4]; 70% RH, 25° C.): 7.7% | 2nd sorp. Weight % change ([4]; 70% RH, 25° C.): 5.8% | 1st desorp. Weight % change ([4]; 80% RH, 25° C.): 9.7% | 1st sorp. Weight % change ([4]; 80% RH, 25° C.): 4.1% | 2nd desorp. Weight % change ([4]; 80% RH, 25° C.): 9.9% | 2nd sorp. Weight % change ([4]; 80% RH, 25° C.): 7.9% | 1st desorp. Weight % change ([4]; 90% RH, 25° C.): 15.5% | 1st sorp. Weight % change ([4]; 90% RH, 25° C.): 7.0% | 2nd desorp. Weight % change ([4]; 90% RH, 25° C.): 16.4% | 2nd sorp. Weight % change ([4]; 90% RH, 25° C.): 13.1% | 1st desorp. Weight % change ([4]; 95% RH, 25° C.): 16.7% | 1st sorp. Weight % change ([4]; 95% RH, 25° C.): 16.7% | 2nd desorp. Weight % change ([4]; 95% RH, 25° C.): 19.6% | 2nd sorp. Weight % change ([4]; 95% RH, 25° C.): 19.6% | Form and crystallinity change after DVS test [4]: no changes in crystallinity | Form and crystallinity change after DVS test ([4]; listed as sodium salt Form F): no form change and no crystallinity decrease | Hygroscopicity ([4]; below 80% RH, 25° C.): slightly hygroscopic | Water uptake ([4]; from 80% RH to 95% RH at 25° C.): 12.6% | Crystallinity by XRPD ([1]; Table 20, batch of Example 24): Medium crystallinity | DSC, heating rate [10° C./min]: Tonset ([1]; Table 20, batch of Example 24): Tonset 194.7 °C | Melting enthalpy ([1]; Table 20, batch of Example 24): 32.4 J/g | Residual solvent by ^1H NMR, weight % ([1]; Table 20, batch of Example 24): No detectable residual solvent | Water content by Karl Fischer ([1]; Table 20, batch of Example 24): 2.5 equiv. water | Water content by Karl Fischer, weight % ([1]; Table 20, batch of Example 24): 4.6 % by weight | Melting onset (DCS, ° C.) ([1]; listed as Sodium salt Form F): Tonset 197.7 °C | Weight loss (TGA) ([1]; at 100° C.): 2.7% at 100° C., | Weight loss (TGA) ([1]; at 100° C.-170° C.): 3.2% at 100° C.- | Weight loss in % at ° C. (Thermogravimetry, heating rate [10° C./min]) ([1]; at 180° C., Table 20, batch of Example 24): 4.8% at 180 °C | Water content (by KF) ([1]; listed as Sodium salt Form F): 6.2% by % by weight | Crystallinity change ([5]; 60° C. in a tight/closed container, 1 week): slight crystallinity decrease | Bulk (XRPD) [5, 13]: No form change | Color [5, 13]: No change of color | Purity, Bulk (HPLC) [5, 13]: 97.7% | Bulk (XRPD) [5, 14]: No form change | Color [5, 14]: No change of color | Purity, Bulk (HPLC) [5, 14]: 98.5% | Bulk (XRPD) [5, 15]: No form change, slight crystallinity decrease | Color [5, 15]: No change of color | Purity, Bulk (HPLC) [5, 15]: 98.9% | Decrease in chemical purity ([5]; listed as Form F): 1.2% | Decrease in chemical purity ([5]; listed as Sodium salt Form F): about 1.2% | Morphic form stability (form change) ([5]; one week, 25° C./92% RH open, 40° C./75% RH open, 60° C. tight container): no form change
